According to patent US20230107538A1, “CYCLOALKYL-CONTAINING CARBOXYLIC ACIDS AND USES THEREOF” (LIMINAL BIOSCIENCES LIMITED, priority 2019, published 2023):

Legend:
[1] = biological target: T1, human GPR40 (Homo sapiens, UniProt O14842); experiment: GPR40 β-arrestin 2 recruitment BRET, agonist mode; assay type: cell-based; details: HEK293 cells, read-out: GPR40 (agonist mode) EC50 β-arr2
T1 construct: host or cells: HEK293 (transient)
Excerpt: (§1) Plasmids: The cDNA clones for human GPR40 and GPR84 receptors, human β-arrestin 2, Gαi2, Gβ1, and Gγ2 were obtained from the cDNA Resource Center (www.cdna.org). A plasmid encoding the human GPR120-L (long isoform) cDNA was obtained from R&D Systems. GPR120-S (short isoform) was generated by replacing the BglII-BsgI fragment from GPR120-L by a gBlock gene fragment (Integrated DNA Technologies, IA) lacking the DNA sequence corresponding to the extra 16 amino acids found in the third intracellular loop of the long form. GFP10 (F64L, S147P, S202F and H231L variant of Aequorea victoria GFP) gBlocks gene fragments (Integrated DNA Technologies) and linker were inserted in frame at the N-terminus of human Gγ2, or at the C-terminus of GPR40 and GPR120. Rluc8 (A55T, C124A, S130A, K136R, A143M, M185V, M253L, and S287L variant of the Renilla luciferase) gBlocks gene fragment (Integrated DNA Technologies) was inserted with linkers in between residues 91 and 92 of Gα2 or at the N-terminus of β-arrestin 2.
(§2) BRET measurements: a Gαi bioluminescence resonance energy transfer (BRET) biosensor was used to directly monitor GPR84-mediated activation of Gαi. The Gαi biosensor consists of a Rluc8-tagged Gαi2 subunit, a GFP10-tagged Gγ2 subunit, and an untagged Gβ1. Agonist stimulation and ensuing GPR84 activation triggers a physical separation between the RLuc8-Gαi donor and the GFP10-Gγ2 acceptor, resulting in a decrease in BRET signal whose amplitude is correlated to ligand efficacy. A BRET-based assay that allows the monitoring of Rluc8-tagged β-arrestin 2 recruitment to GFP10-tagged GPR40 or GFP10-tagged GPR120 was used to assess GPR40 or GPR120 activation. Transiently transfected HEK293 cells were seeded in 96-well white clear bottom Costar microplates (Fisher Scientific) coated with poly-D-lysine (Sigma-Aldrich) and left in culture for 24 hours. Cells were washed once with Tyrode's buffer (140 mmol/L NaCl, 1 mmol/L CaCl2, 2.7 mmol/L KCl, 0.49 mmol/L MgCl2, 0.37 mmol/L NaH2PO4, 5.6 mmol/L glucose, 12 mmol/L NaHCO3, and 25 mmol/L HEPES, pH 7.5) and the Rluc8 substrate coelenterazine 400A (Prolume, Lakeside, Ariz.) added at a final concentration of 5 μmol/L in Tyrode's buffer. Ligands were incubated with cells at room temperature for 5 minutes (G protein) or 25 minutes (β-arrestin) before reading BRET signal. In GPR84 antagonist mode, cells were treated with 125 μmol/L of the GPR84 agonist sodium decanoate in combination with test compounds. BRET readings were collected using an Infinite M1000 microplate reader (Tecan, Morrisville, N.C.). BRET^2 readings between Rluc8 and GFP10 were collected by sequential integration of the signals detected in the 370 to 450 nm (Rluc8) and 510 to 540 nm (GFP10) windows. The BRET signal was calculated as the ratio of light emitted by acceptor (GFP10) over the light emitted by donor (Rluc8). The values were corrected to net BRET by subtracting the background BRET signal obtained in cells transfected with Rluc8 constructs alone. Ligand-promoted net BRET values were calculated by subtracting vehicle-induced net BRET from ligand-induced net BRET.

[2] = biological target: T2, human GPR84 (Homo sapiens, UniProt Q9NQS5); experiment: GPR84 Gαi BRET biosensor, agonist activity; assay type: cell-based; details: HEK293 cells
T2 construct: host or cells: HEK293 (transient)
Excerpt: as §1, §2

[3] = biological target: T3, human GPR120 (Homo sapiens, UniProt Q5NUL3); experiment: GPR120 β-arrestin 2 recruitment BRET, agonist mode; assay type: cell-based; details: HEK293 cells, read-out: GPR120 (agonist mode) EC50 β-arr2
T3 sequence (Q5NUL3 1-361): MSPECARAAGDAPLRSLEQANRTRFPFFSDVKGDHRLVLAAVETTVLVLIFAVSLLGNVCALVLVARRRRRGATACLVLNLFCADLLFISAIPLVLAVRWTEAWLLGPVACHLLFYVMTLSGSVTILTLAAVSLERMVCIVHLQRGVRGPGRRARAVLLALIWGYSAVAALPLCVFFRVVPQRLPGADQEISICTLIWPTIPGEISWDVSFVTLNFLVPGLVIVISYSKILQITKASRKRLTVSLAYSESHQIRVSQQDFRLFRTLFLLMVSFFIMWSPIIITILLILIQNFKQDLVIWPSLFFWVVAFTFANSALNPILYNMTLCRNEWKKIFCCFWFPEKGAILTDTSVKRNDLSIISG
Excerpt: as §1, §2

[4] = biological target: T2, human GPR84; experiment: GPR84 Gαi BRET biosensor, antagonist mode (125 μmol/L sodium decanoate); assay type: cell-based; details: HEK293 cells, with 125 μmol/L sodium decanoate
Excerpt: as §1, §2

[5] = biological target: T4, human PPARγ ligand binding domain (LBD) (Homo sapiens, UniProt P37231); experiment: Cell-based GAL4 PPAR transactivation assay in HEK293 cells, PPARγ; details: 24 h
T4 construct: PPARγ (S176-Y477); host or cells: HEK293
T4 sequence (P37231 176-477 isoform P37231-2): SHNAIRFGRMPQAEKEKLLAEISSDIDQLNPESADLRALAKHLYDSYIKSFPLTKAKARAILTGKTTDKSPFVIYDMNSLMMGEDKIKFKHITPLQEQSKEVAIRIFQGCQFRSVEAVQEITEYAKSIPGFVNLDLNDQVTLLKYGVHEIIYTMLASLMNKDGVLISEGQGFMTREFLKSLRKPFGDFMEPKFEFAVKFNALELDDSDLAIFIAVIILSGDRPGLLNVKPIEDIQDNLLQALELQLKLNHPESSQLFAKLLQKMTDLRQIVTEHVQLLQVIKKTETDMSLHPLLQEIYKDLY
Description: (§3) The peroxisome proliferator-activated receptors (PPARs), PPARα, PPARδ, and PPARγ are ligand-dependent transcription factors that control expression of several key metabolism-associated genes. The transcriptional activity of representative compounds of formula I to these receptors was assessed using a cell-based GAL4 transactivation assay in HEK293 cells transfected with either PPARα, PPARδ, or PPARγ ligand binding domain (LBD), and was compared to that of the full control agonists GW7647 (PPARα), GW0742 (PPARδ), and rosiglitazone (PPARγ).
(§4) Plasmids: The hinge region and ligand binding domain (LBD) from human PPARα (S167-Y468), PPARδ (S139-Y440) and PPARγ (S176-Y477) were PCR-amplified from a PPARα cDNA clone (cDNA Resource Center, http://www.cdna.org) or from PPARδ1 and PPARγ1 LBD gBlocks™ gene fragments (Integrated DNA Technologies). The PPAR LBD PCR products were inserted in frame with the GAL4 DNA binding domain in the pFN26A(BIND)-hRlu-neo Flexi vector (Promega) at SgfI and PmeI sites to generate GAL4-PPAR-Rluc.
(§5) Cell-based PPAR transactivation assay. HEK293 cells were co-transfected with pGL4.35[luc2P/9XGAL4UAS/Hygro] (Promega) and GAL4-PPAR-Rluc plasmids, and after 24 h of incubation were treated with compounds for 24 h. Luciferase activity was determined with the Dual Glo™ luciferase assay (Promega). Firefly luminescence was normalized to the constitutively expressed Renilla luminescence, and results expressed as fold induction of vehicle control or percentage of reference agonist maximal activity.

[6] = biological target: T5, human PPARδ ligand binding domain (LBD) (Homo sapiens, UniProt Q03181); experiment: Cell-based GAL4 PPAR transactivation assay in HEK293 cells, PPARδ; details: 24 h
T5 construct: PPARδ (S139-Y440); host or cells: HEK293
T5 sequence (Q03181 139-441 limits assumed): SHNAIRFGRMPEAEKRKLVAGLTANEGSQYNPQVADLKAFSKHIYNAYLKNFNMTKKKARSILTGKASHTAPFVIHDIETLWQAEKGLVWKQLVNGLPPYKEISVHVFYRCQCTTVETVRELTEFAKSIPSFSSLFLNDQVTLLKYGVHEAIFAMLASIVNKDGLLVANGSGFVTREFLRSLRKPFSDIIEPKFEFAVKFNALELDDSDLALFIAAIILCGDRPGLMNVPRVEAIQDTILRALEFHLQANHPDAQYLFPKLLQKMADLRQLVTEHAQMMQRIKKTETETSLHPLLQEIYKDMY
Description: as §3, §4, §5

[7] = biological target: T6, human PPARα ligand binding domain (LBD) (Homo sapiens, UniProt Q07869); experiment: Cell-based GAL4 PPAR transactivation assay in HEK293 cells, PPARα; details: 24 h
T6 construct: human PPARα (S167-Y468); expressed in transfected cells; host or cells: HEK293
T6 sequence (Q07869 167-468): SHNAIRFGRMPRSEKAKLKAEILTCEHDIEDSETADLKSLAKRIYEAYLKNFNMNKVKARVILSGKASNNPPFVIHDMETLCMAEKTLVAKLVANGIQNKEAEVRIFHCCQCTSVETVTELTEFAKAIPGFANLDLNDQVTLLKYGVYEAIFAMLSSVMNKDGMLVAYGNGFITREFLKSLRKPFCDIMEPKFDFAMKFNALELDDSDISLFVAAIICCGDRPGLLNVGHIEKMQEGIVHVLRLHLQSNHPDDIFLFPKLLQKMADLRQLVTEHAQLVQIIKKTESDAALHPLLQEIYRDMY
Description: as §3, §4, §5

T2 sequence (Q9NQS5 whole entry): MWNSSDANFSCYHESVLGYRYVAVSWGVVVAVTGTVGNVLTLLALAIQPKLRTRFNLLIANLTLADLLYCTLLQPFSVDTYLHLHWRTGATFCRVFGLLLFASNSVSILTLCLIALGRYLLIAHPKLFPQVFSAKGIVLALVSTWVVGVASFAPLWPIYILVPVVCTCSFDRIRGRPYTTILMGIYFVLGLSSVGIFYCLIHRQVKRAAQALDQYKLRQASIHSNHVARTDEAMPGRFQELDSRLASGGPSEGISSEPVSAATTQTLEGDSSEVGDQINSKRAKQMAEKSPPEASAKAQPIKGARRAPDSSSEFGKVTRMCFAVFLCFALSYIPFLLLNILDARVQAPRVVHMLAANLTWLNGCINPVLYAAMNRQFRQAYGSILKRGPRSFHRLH
T1 sequence (O14842 whole entry): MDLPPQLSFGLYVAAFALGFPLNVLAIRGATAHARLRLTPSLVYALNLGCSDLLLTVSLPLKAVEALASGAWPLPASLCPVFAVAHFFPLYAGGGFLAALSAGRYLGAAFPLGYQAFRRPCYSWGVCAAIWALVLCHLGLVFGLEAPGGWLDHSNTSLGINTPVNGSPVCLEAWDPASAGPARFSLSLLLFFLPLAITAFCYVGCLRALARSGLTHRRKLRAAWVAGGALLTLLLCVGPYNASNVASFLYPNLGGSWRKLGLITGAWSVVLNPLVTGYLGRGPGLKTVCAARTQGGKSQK

Structure (SMILES) | EC50 [1] [µM] | EC50 [2] [µM] | EC50 [3] [µM] | IC50 [4] [µM] | PPARγ (GAL4 reporter) % efficacity relative to rosiglitazone [5] [%] | PPARδ (GAL4 reporter) % efficacity relative to GW0742 [6] [%] | PPARα (GAL4 reporter) % efficacity relative to GW7647 [7] [%]
CCCCCCC1OC1CC(=O)O (stereo not shown) | > 500 | 114 | > 500 |  |  |  | 
CCCCCCCC1(CC(=O)O)CC1 | 122 |  | ≥ 500 | > 500 |  |  | 
CCCCCC1CC(CC(=O)O)C1(C)C (stereo not shown) | 15 |  | 90 | 49 |  |  | 
CCCCC[C@H]1CCC[C@@H](CC(=O)O)C1 | 12 |  | 377 | 56 |  |  | 
CC1(C)CC1CCCCC/C=C/C(=O)[O-].[Na+] (stereo not shown) |  |  |  |  | 1 | 30 | 10
CCCCCCC1C(CC(=O)O)C1(C)C (stereo not shown) [drawing 299] | 30 |  | > 125 | 56 |  |  | 
CCCCCCC1C(CC(=O)O)C1(C)C (stereo not shown) [drawing 302] | > 63 |  | > 63 |  |  |  | 
CCCCCCCC1CC1C(=O)O (stereo not shown) | 49 | 13 | > 250 |  |  |  | 
[2H]C1([2H])C(CCCCCCC)C1CC(=O)[O-].[Na+] (stereo not shown) | 149 | 23 | 299 |  |  |  | 
CCCCCC1C(CCC(=O)O)C1(F)F (stereo not shown) | 133 | 79 | > 500 |  |  |  | 
CC1(C)CC1CCCCCC1CC1C(=O)O (stereo not shown) | 14.3 |  | 35 |  |  |  | 
CCCCCC1CC(=CC(=O)O)C1 (stereo not shown) | 70 | < 16 | 88 |  |  |  | 
CCCCCC=C1CC(C(=O)O)C1 (stereo not shown) | 252 |  | > 500 | 131 |  |  | 
CCCCCCC1C(CC(=O)[O-])C1(C)C.[Na+] (stereo not shown) [drawing 322] |  |  |  |  | 8 | 2 | 91
CCCCCC1C(CCC(=O)O)C1(Br)Br (stereo not shown) | 16 |  | 45 | 20 |  |  | 
CCCCCCC1CC(C(=O)O)C1 (stereo not shown) | 63.4 | 73 | 382 |  |  |  | 
CCCCCC1CC(CC(=O)O)C1 (stereo not shown) | 87 | 35 | > 500 |  |  |  | 

Structure (SMILES) | EC50 [1] [µM] | EC50 [2] [µM] | EC50 [3] [µM] | IC50 [4] [µM] | PPARγ (GAL4 reporter) % efficacity relative to rosiglitazone [5] [%] | PPARδ (GAL4 reporter) % efficacity relative to GW0742 [6] [%] | PPARα (GAL4 reporter) % efficacity relative to GW7647 [7] [%]
CCCCCCC1C(CC(=O)O)C1(F)F (stereo not shown) | 126 |  | 383 | 117 |  |  | 
CCCCCCC1C(CC(=O)O)C1(C)C (stereo not shown) [drawing 311] | 174 |  | > 500 | 468 |  |  | 
CCCCCC1CC/C1=C/C(=O)O (stereo not shown) | 211 |  | 307 | 180 |  |  | 
CCCCCC1CCC1CC(=O)O (stereo not shown) | 83 |  | > 500 | 173 |  |  | 
CCCCCCCC1(CC(=O)O)CCC1 | 21 |  | > 63 | > 63 |  |  | 
CCCCCCC1C(CCC(=O)O)C1(C)C (stereo not shown) | 10 |  | > 31 | 9 |  |  | 
CCCCCCCCC1(C(=O)O)CC1 | 164 |  | 245 | 115 |  |  | 
CCCCCCCC1CC1C(=O)[O-].[Na+] (stereo not shown) |  |  |  |  | 16 | 4 | 90
CCCCCC1C(CCC(=O)O)C1(C)C (stereo not shown) | 27 |  | > 63 | > 63 |  |  | 
CC1(C)CC1CCCCC1CC1C(=O)[O-].[Na+] (stereo not shown) |  |  |  |  | 5 | 5 | 43
CCCCCCC1CC1C(=O)C(=O)[O-].[Na+] (stereo not shown) |  |  |  |  | 2 | −3 | 34
CCCCCCC1CC1CC(=O)O (stereo not shown) | 170 | < 16 | 272 |  |  |  | 
CCCCCCC1CC1C(=O)C(=O)O (stereo not shown) | 321 | 36.9 | > 500 |  |  |  | 
CC1(C)CC1CCCCC/C=C/C(=O)O (stereo not shown) | 22 | 6 | 61 |  |  |  | 
CCCC[C@H]1CC[C@H](CCC(=O)O)CC1 | 21 |  | 22 | 22 |  |  | 
CC1(C)CC1CCCCCCCC(=O)O (stereo not shown) | 11 | 5 | 77 |  |  |  | 
